What was measured:
[1] = tested on: rat model of chronic kidney disease (CKD) via 5/6 nephrectomy; experiment: JZL184 in rat 5/6 nephrectomy model of chronic kidney disease; format: in vivo, male Sprague-Dawley rats; conditions: CKD rats, 4 weeks
Description: (§1) We used a well-known experimental tool, JZL184, which inhibits the enzyme responsible for breakdown of 2-AG, monoacylglycerol lipase (MGL), to determine the effect of increased tissue 2-AG levels on markers of renal function in animal models of chronic kidney disease (CKD). JZL184 was administered intraperitoneally in a well-established rat and mouse model of chronic kidney disease (CKD) (FIG. 8).
(§2) Therefore, we induced CKD in animals via 5/6 nephrectomy (surgical removal of one entire kidney in addition to 2/3 of the contralateral kidney which results in significant renal mass reduction and development of kidney failure over 6-10 weeks) in two separate studies (one set in rats and one set in mice).
In the rats, male Sprague-Dawley rats underwent 5/6 nephrectomy versus sham surgery and after two weeks were randomized to 4 groups: sham surgery, CKD treated with vehicle, CKD treated with 4 mg/kg JZL184 and CKD treated with 8 mg/kg JZL184 (n=6-8). During and at the end of the study, non-invasive blood pressure measurements were performed using tail-cuff plethysmography. Before sacrifice, a 24-hour urine sample was collected and evaluated for urine protein and creatinine to assess for degree of proteinuria (degree of proteinuria is a marker of glomerular and interstitial kidney damage in advanced CKD). After sacrifice, serum was obtained to assess for renal function. […] This was associated reduced systolic blood pressure and decreased rate of urine protein excretion.

[2] = tested on: mouse model of chronic kidney disease (CKD) via 5/6 nephrectomy; experiment: JZL184 in mouse 5/6 nephrectomy model of chronic kidney disease; format: in vivo, Male C57BL/6J mice; conditions: CKD mice, JZL184 4 mg/kg, 4 weeks; FIG. 12
Description: as §1, §2
We performed a similar experiment in mice. Male C57BL/6J mice underwent sham surgery versus 5/6 nephrectomy to induce CKD and two weeks after surgery were randomized to vehicle versus JZL184 therapy (4 mg/kg). Treated animals received JZL184 (4 mg/kg) for an additional 4 weeks (FIG. 11).

[3] = tested on: monoacylglycerol lipase (MGL); conditions: cited from earlier work
[4] = JZL184 4 or 8 mg/kg intraperitoneal, FIG. 9

## O=C(Oc1ccc([N+](=O)[O-])cc1)N1CCC(C(O)(c2ccc3c(c2)OCO3)c2ccc3c(c2)OCO3)CC1 [JZL184, 4-nitrophenyl-4-(dibenzo[d][1,3]dioxol-5-yl(hydroxy)methyl)piperidine-1-carboxylate]
[1]; [4]
  cerebral cortex 2-AG concentration: significant increase
  renal 2-AG concentration: significant increase
[1]; JZL184 4 or 8 mg/kg, 24-hour urine, FIG. 10
  rate of urine protein excretion: decreased
[1]; JZL184 4 or 8 mg/kg, FIG. 10
  renal function (serum): signal toward improved renal function
[1]; JZL184 4 or 8 mg/kg, tail-cuff plethysmography, FIG. 10
  systolic blood pressure: reduced
[2]
  blood pressure: significant improvement
  serum BUN concentration: reduced
  urinary protein excretion: decreased
[3]; 4 mg/kg in mice and 4-8 mg/kg in rats, have been shown (prior work)
  overt symptoms of endocannabinoid activation in the central nervous system: without causing overt symptoms
[3]; has been shown (prior work)
  brain and kidney levels of 2-AG: significantly increase

From US20210267959A1, “METHODS OF TREATING RENAL DISEASE” (The Regents of the University of California, priority 2018, published 2021)
